According to patent EP2365972B1, “MODULATORS OF ATP-BINDING CASSETTE TRANSPORTERS” (Vertex Pharmaceuticals Incorporated, priority 2008, dated 2010):

Target: T1, ΔF508-CFTR (Homo sapiens, UniProt P13569, DEL508-508)
T1 construct: expressed in transfected cells
Experiment: Membrane potential optical assay for ΔF508-CFTR correction (single-addition HTS format)
Assay type: cell-based
Conditions: NIH 3T3 cells expressing ΔF508-CFTR, 16-24 hrs with test compound, 10 µM forskolin and genistein (20 µM); for Emax: NIH3T3, read-out: Binned Max Efficacy; for EC50: read-out: Binned EC50
From the text: Membrane potential optical methods for assaying ΔF508-CFTR modulation properties of compounds.
The assay utilizes fluorescent voltage sensing dyes to measure changes in membrane potential using a fluorescent plate reader (e.g., FLIPR III, Molecular Devices, Inc.) as a readout for increase in functional ΔF508-CFTR in NIH 3T3 cells. The driving force for the response is the creation of a chloride ion gradient in conjunction with channel activation by a single liquid addition step after the cells have previously been treated with compounds and subsequently loaded with a voltage sensing dye.
To identify small molecules that correct the trafficking defect associated with ΔF508-CFTR; a single-addition HTS assay format was developed. Assay Plates containing cells are incubated for ∼2-4 hours in tissue culture incubator at 37°C, 5%CO2, 90% humidity. Cells are then ready for compound exposure after adhering to the bottom of the assay plates.
The cells were incubated in serum-free medium for 16-24 hrs in tissue culture incubator at 37°C, 5%CO2, 90% humidity in the presence or absence (negative control) of test compound. The cells were subsequently rinsed 3X with Krebs Ringers solution and loaded with a voltage sensing redistribution dye. To activate ΔF508-CFTR, 10 µM forskolin and the CFTR potentiator, genistein (20 µM), were added along with Cl^--free medium to each well. The addition of Cl^--free medium promoted Cl^- efflux in response to ΔF508-CFTR activation and the resulting membrane depolarization was optically monitored using voltage sensor dyes.
Bath Solution #1: (in mM) NaCl 160, KCl 4.5, CaCl2 2, MgCl2 1, HEPES 10, pH 7.4 with NaOH.
Chloride-free bath solution: Chloride salts in Bath Solution #1 are substituted with gluconate salts.
NIH3T3 mouse fibroblasts stably expressing ΔF508-CFTR are used for optical measurements of membrane potential. The cells are maintained at 37 °C in 5% CO2 and 90 % humidity in Dulbecco's modified Eagle's medium supplemented with 2 mM glutamine, 10 % fetal bovine serum, 1 X NEAA, β-ME, 1 X pen/strep, and 25 mM HEPES in 175 cm^2 culture flasks. For all optical assays, the cells were seeded at […] in 384-well matrigel-coated plates and cultured for 2 hrs at 37 °C before culturing at 27 °C for 24 hrs. for the potentiator assay. For the correction assays, the cells are cultured at 27 °C or 37 °C with and without compounds for 16 - 24 hours.

T1 sequence (P13569 with tags, fused parts or gaps DEL508-508): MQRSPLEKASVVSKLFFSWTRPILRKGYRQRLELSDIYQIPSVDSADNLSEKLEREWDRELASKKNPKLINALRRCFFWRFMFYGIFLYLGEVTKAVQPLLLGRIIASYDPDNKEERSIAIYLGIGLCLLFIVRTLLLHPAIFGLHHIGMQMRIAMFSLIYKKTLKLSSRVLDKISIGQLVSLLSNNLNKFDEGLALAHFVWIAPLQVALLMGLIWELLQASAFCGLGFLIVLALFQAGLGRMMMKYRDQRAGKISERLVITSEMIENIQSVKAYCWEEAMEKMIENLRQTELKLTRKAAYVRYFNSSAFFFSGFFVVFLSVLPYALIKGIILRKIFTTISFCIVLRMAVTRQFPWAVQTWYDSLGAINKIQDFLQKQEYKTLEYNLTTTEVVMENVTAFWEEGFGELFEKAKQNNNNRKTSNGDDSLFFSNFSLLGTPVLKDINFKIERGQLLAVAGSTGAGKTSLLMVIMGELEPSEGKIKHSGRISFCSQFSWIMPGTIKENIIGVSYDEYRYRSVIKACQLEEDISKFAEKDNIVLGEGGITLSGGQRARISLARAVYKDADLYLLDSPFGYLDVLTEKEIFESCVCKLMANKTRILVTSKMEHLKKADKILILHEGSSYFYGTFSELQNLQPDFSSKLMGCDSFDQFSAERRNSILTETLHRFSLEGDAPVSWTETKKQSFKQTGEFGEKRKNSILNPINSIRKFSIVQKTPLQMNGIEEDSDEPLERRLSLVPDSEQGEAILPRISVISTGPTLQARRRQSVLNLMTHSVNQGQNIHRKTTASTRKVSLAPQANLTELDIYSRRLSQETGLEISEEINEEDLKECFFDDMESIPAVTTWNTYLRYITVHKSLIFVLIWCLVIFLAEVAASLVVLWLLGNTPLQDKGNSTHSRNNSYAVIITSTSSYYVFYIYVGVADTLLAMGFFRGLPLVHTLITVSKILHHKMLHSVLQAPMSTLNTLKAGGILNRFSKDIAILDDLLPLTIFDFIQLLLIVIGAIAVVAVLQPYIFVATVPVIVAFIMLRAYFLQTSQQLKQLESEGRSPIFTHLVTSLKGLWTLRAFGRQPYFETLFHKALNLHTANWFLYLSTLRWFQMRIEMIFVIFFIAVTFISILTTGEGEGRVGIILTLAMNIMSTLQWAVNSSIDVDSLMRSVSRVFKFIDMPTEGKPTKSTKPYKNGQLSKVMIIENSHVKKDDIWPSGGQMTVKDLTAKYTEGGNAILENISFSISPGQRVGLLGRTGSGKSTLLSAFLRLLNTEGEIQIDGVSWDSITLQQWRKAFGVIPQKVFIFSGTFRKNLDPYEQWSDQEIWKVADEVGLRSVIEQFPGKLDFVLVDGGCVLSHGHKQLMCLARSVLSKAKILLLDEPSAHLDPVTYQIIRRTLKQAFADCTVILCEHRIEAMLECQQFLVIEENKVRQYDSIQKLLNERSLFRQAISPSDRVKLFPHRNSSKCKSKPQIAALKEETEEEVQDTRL

Row | Molecule | Emax | EC50 | Binned Max Efficacy
1 | CC(C)(C)c1cc2cc(NC(=O)C3(c4ccc5c(c4)OCO5)CC3)c(F)cc2n1CC(O)CO (stereo not drawn) [Compound 318] | > 100% | < 2 µM | 
2 | CC(C)(CCO)c1cc2cc(NC(=O)C3(c4ccc5c(c4)OC(F)(F)O5)CC3)c(F)cc2n1C[C@@H](O)CO [Compound 311, (R)-1-(2,2-difluorobenzo[d][1,3]dioxol-5-yl)-N-(1-(2,3-dihydroxypropyl)-6-fluoro-2-(4-hydroxy-2-methylbutan-2-yl)-1H-indol-5-yl)cyclopropanecarboxamide] | > 100% | < 2 µM | 
3 | CC(C)(C)c1cc2c(C#N)c(NC(=O)C3(c4ccc5c(c4)OC(F)(F)O5)CC3)ccc2n1CCO [Compound 315, N-(2-tert-butyl-4-cyano-1-(2-hydroxyethyl)-1H-indol-5-yl)-1-(2,2-difluorobenzo[d][1,3]dioxol-5-yl)cyclopropanecarboxamide] | > 100% | < 2 µM | 
4 | 2-(2-tert-butyl-5-(1-(2,2-difluorobenzo[d][1,3]dioxol-5-yl)cyclopropanecarboxamido)-6-fluoro-1H-indol-1-yl)-N,N,N-trimethylethanaminium chloride [Compound 308] |  | 2 to 5 µM | +++ ("+++" means > 100%)
5 | CC(C)(CCOC[C@@H](O)CO)c1cc2cc(NC(=O)C3(c4ccc5c(c4)OC(F)(F)O5)CC3)c(F)cc2n1C[C@@H](O)CO [Compound 310, 1-(2,2-difluorobenzo[d][1,3]dioxol-5-yl)-N-(2-(4-((S)-2,3-dihydroxypropoxy)-2-methylbutan-2-yl)-1-((R)-2,3-dihydroxypropyl)-6-fluoro-1H-indol-5-yl)cyclopropanecarboxamide] | > 100% | < 2 µM | 
6 | CC(C)(CCOC[C@@H](O)CO)c1cc2cc(NC(=O)C3(c4ccc5c(c4)OC(F)(F)O5)CC3)c(F)cc2[nH]1 [Compound 309, (S)-1-(2,2-difluorobenzo[d][1,3]dioxol-5-yl)-N-(2-(4-(2,3-dihydroxypropoxy)-2-methylbutan-2-yl)-6-fluoro-1H-indol-5-yl)cyclopropanecarboxamide] | > 100% | < 2 µM | 
